Test results as given in patent publication US8785452B2, “Anti-infective compounds” (priority 2008, dated 2014).
In brackets after ≈: the same amount, converted by molar mass. Like-named read-outs stand apart in the source and are kept apart here.

How the values were obtained:
[1] = test system: M. tuberculosis clinical isolates; assay type: cell-based, Mycobacterium tuberculosis
Antimicrobial spectrum [2] = assay type: cell-based; conditions: Gram-negative panel
HEK293-Kidney = experiment: Cytotoxicity assay (resazurin); assay type: cell-based; conditions: 5 days
Protocol: (§1) In order to address compound toxicity, seven cell lines originating from different body tissues were cultivated in the presence of 3-fold dilutions of compounds starting from 100 μM. After 5 days of culture, cell viability was assessed by the resazurin test. Briefly, cells were incubated with 10 μg/mL of resazurin (Sigma-Aldrich St. Louis, Mo.) for 4 h at 37° C. under 5% CO2. Resofurin fluorescence (RFU) was measured as indicated above. Percentage of toxicity on cells was calculated as follows: Cytotoxicity (%)=(RFUDMSO−RFUBlank)−(RFUcompound−RFUblank)/(RFUDMSO−RFUBlank)×100. Percentage of cytotoxicity was plotted against compound concentration and the minimal toxic concentration (MTC50) was determined by non-linear regression analysis as the lowest compound concentration where fifty percent toxicity was observed on the corresponding cell line.

SK-N-SH-Brain = experiment: Cytotoxicity assay (resazurin); assay type: cell-based; conditions: 5 days
Protocol: as §1

HepG2-Hepatocytes = experiment: Cytotoxicity assay (resazurin); assay type: cell-based; conditions: 5 days
Protocol: as §1

BJ-Skin = experiment: Cytotoxicity assay (resazurin); assay type: cell-based; conditions: 5 days
Protocol: as §1

MRC5-Lung = experiment: Cytotoxicity assay (resazurin); assay type: cell-based; conditions: 5 days
Protocol: as §1

[3] = test system: panel of cell lines derived from different body tissue; experiment: Cytotoxicity assay (resazurin), whole panel; conditions: 5 days co-incubation, 133 up to 100 μM
M. tuberculosis H37Ra = experiment: MIC, in vitro bacterial growth assay; assay type: cell-based; conditions: Mycobacterium tuberculosis; laboratory strain H37Ra; read-out: MIC
M. bovis BCG Pasteur = experiment: microbe, parasite or virus in culture; assay type: cell-based; conditions: Mycobacterium tuberculosis variant bovis BCG
M. smegmatis mc^2 155 = experiment: MIC, in vitro bacterial growth assay; assay type: cell-based, Mycobacterium smegmatis; conditions: Mycolicibacterium smegmatis, MC^2155
Antimicrobial spectrum [4] = assay type: cell-based; conditions: Gram-positive panel
[5] = test system: M. tuberculosis Beijing 1237; experiment: MIC, in vitro bacterial growth assay; assay type: cell-based; conditions: Mycobacterium tuberculosis, BEIJING1237; laboratory strain Beijing 1237
M. tuberculosis H37Rv [6] = experiment: Conventional CFU determination in infected macrophages; assay type: cell-based, Mycobacterium tuberculosis
C. striatum = experiment: Antimicrobial spectrum; assay type: cell-based, Corynebacterium; conditions: Corynebacterium C. striatum
M. tuberculosis H37Rv [7] = experiment: MIC, in vitro bacterial growth assay; assay type: cell-based; conditions: Mycobacterium tuberculosis; laboratory strain H37Rv; read-out: MIC
C. jeikeium = experiment: Antimicrobial spectrum; assay type: cell-based, Corynebacterium; conditions: Corynebacterium C. jeikeium
M. bovis BCG Tokyo = experiment: microbe, parasite or virus in culture; assay type: cell-based; conditions: Mycobacterium tuberculosis variant bovis BCG
[8] = test system: Fungi: Candida albicans, C. glabrata, C. parapsilosis; experiment: Antimicrobial spectrum; assay type: cell-based; conditions: Candida panel
[9] = test system: M. tuberculosis H37Rv-GFP; experiment: microbe, parasite or virus in culture; assay type: cell-based, Mycobacterium tuberculosis; conditions: for inhibition at 20 µM: Mycobacterium tuberculosis, H37RV, Macrophage
Raw264.7 cells [10] = conditions: mouse, 5 days, 20 μM
Raw264.7 cells [11] = experiment: Cell number (CellNb) from image analysis of the phenotypic cell-based assay; conditions: primary screen, 20 μM
[12] = compounds 5 μM, Raw264.7, mouse bone marrow-derived macrophages, human primary macrophages, five days after infection
[13] = confirmation, 20 uM, read-out: QIM Confirm % Inhibition 20 uM
[14] = primary screen, 20 μM, read-out: Primary QIM % Inhibition

Compound: CS(=O)(=O)O[C@H]1CCN(C(=O)c2cc([N+](=O)[O-])cc([N+](=O)[O-])c2)C1
- melting point: 138 to 140 °C

Compound: O=C(NCCOCc1ccccc1)c1cc([N+](=O)[O-])cc([N+](=O)[O-])c1 [compound 24, N-(2-(Benzyloxy)ethyl)-3,5-dinitrobenzamide]
- Range of MICs for multiple strains ([1]; Drug Sensitive, Tissue): 0.31 µM
- Range of MICs for multiple strains ([1]; INH^R RIF^R Strep^R, Sputum): 0.08 µM
- Range of MICs for multiple strains ([1]; INH^R RIF^R Strep^R, Tissue): 0.04 to 0.08 µM
- Range of MICs for multiple strains ([1]; MDR, Sputum): 0.04 to 0.08 µM
- Range of MICs for multiple strains ([1]; MDR, Tissue): 0.04 to 0.08 µM
- Range of MICs for multiple strains ([1]; RIF^R, Sputum): 0.08 µM
- Range of MICs for multiple strains ([1]; RIF^R, Tissue): 0.08 µM
- Range of MICs for multiple strains ([1]; XDR, Sputum): 0.04 to 0.08 µM
- Range of MICs for multiple strains ([1]; XDR, Tissue): 0.08 µM
- MIC (Antimicrobial spectrum [2]): > 250 µM
- Range of MTC50 (HEK293-Kidney): >100 µM
- Range of MTC50 (SK-N-SH-Brain): >100 µM
- Range of MTC50 (HepG2-Hepatocytes): >100 µM
- Range of MTC50 (BJ-Skin): >100 µM
- Range of MTC50 (MRC5-Lung): >100 µM
- cytotoxicity against the panel of cell lines [3]: no cytotoxicity
- MIC (M. tuberculosis H37Ra): 1.3 µM (≈ 0.449 µg/mL)
- MIC (M. bovis BCG Pasteur): 1.2 µM (≈ 0.414 µg/mL)
- MIC (M. smegmatis mc^2 155): 0.6 µM (≈ 0.207 µg/mL)
- MIC (Antimicrobial spectrum [4]): > 250 µM
- MIC [5]: 0.1 µM (≈ 0.0345 µg/mL)
- decrease in the number of CFUs (M. tuberculosis H37Rv [6]; [12]): ten-fold decrease
- MIC (C. striatum): 27 µM (≈ 9.32 µg/mL)
- MIC (M. tuberculosis H37Rv [7]): 0.6 µM (≈ 0.207 µg/mL)
- MIC (C. jeikeium): 2.7 µM (≈ 0.932 µg/mL)
- MIC (M. bovis BCG Tokyo): 0.6 µM (≈ 0.207 µg/mL)
- MIC [8]: > 250 µM

Compound: CNC(=O)c1c(Nc2ccc(F)c(Cl)c2)nc2c(OC)cccn2c1=O
- melting point: 218 °C (dec.)

Compound: COc1ccc(OCCNC(=O)c2cc([N+](=O)[O-])cc([N+](=O)[O-])c2)cc1 [compound 4, N-(2-(4-Methoxyphenoxy)ethyl)-3,5-dinitrobenzamide]
- Range of MICs for multiple strains ([1]; Drug Sensitive, Tissue): 0.38 µM
- Range of MICs for multiple strains ([1]; INH^R RIF^R Strep^R, Sputum): 0.1 µM
- Range of MICs for multiple strains ([1]; INH^R RIF^R Strep^R, Tissue): 0.05 to 0.1 µM
- Range of MICs for multiple strains ([1]; MDR, Sputum): 0.05 to 0.1 µM
- Range of MICs for multiple strains ([1]; MDR, Tissue): 0.05 to 0.1 µM
- Range of MICs for multiple strains ([1]; RIF^R, Sputum): 0.05 µM
- Range of MICs for multiple strains ([1]; RIF^R, Tissue): 0.02 to 0.05 µM
- Range of MICs for multiple strains ([1]; XDR, Sputum): 0.02 to 0.05 µM
- Range of MICs for multiple strains ([1]; XDR, Tissue): 0.05 to 0.1 µM
- MIC (Antimicrobial spectrum [2]): > 250 µM
- Range of MTC50 (HEK293-Kidney): >100 µM
- Range of MTC50 (SK-N-SH-Brain): >100 µM
- Range of MTC50 (HepG2-Hepatocytes): >100 µM
- Range of MTC50 (BJ-Skin): >100 µM
- Range of MTC50 (MRC5-Lung): >100 µM
- cytotoxicity against the panel of cell lines [3]: no cytotoxicity
- MIC (M. tuberculosis H37Ra): 1.2 µM (≈ 0.434 µg/mL)
- MIC (M. bovis BCG Pasteur): 1.2 µM (≈ 0.434 µg/mL)
- MIC (M. smegmatis mc^2 155): 1.2 µM (≈ 0.434 µg/mL)
- MIC (Antimicrobial spectrum [4]): > 250 µM
- MIC [5]: 0.3 µM (≈ 0.108 µg/mL)
- decrease in the number of CFUs (M. tuberculosis H37Rv [6]; [12]): ten-fold decrease
- MIC (C. striatum): 27 µM (≈ 9.76 µg/mL)
- MIC (M. tuberculosis H37Rv [7]): 0.6 µM (≈ 0.217 µg/mL)
- MIC (C. jeikeium): 2.7 µM (≈ 0.976 µg/mL)
- MIC (M. bovis BCG Tokyo): 1.2 µM (≈ 0.434 µg/mL)
- MIC [8]: > 250 µM

Compound: Cc1cccn2c(=O)c(CO)c(Nc3cccc(Cl)c3)nc12 [compound 232, 2-(3-Chlorophenylamino)-3-(hydroxymethyl)-9-methyl-4H-pyrido[1,2-a]pyrimidin-4-one]
- bacterial load and host cell abundance versus DMSO control [9]: harbored fewer bacteria compared to DMSO control and were more abundant
- decrease in the number of CFUs (M. tuberculosis H37Rv [6]; human and mouse cells, seven days after infection, 232 at 20 μM): ten-fold decrease

Compound: COc1cc(Br)cc(/C=N/NC(=O)c2ccncc2)c1O [IPK 000 079 15]
- inhibition at 20 µM [9, 13]: 97.9%
- inhibition at 20 µM [9, 14]: 82.4%
- Primary QIM CellNb (Raw264.7 cells [10]): 90.5
- Primary QIM CellNb (Raw264.7 cells [11]): 383.3

Compound: CC1=C(Nc2ccc(S(=O)(=O)Nc3nc(C)cc(C)n3)cc2)Sc2ccccc2N1 [IPK 000 112 67]
- inhibition at 20 µM [9, 13]: 32.6%
- inhibition at 20 µM [9, 14]: -36.5%
- Primary QIM CellNb (Raw264.7 cells [10]): 27.6
- Primary QIM CellNb (Raw264.7 cells [11]): 250.8

Compound: O=C(N/N=C/c1ccc(O)c([N+](=O)[O-])c1)c1ccncc1 [IPK 000 043 11]
- inhibition at 20 µM [9, 13]: 104%
- inhibition at 20 µM [9, 14]: 104%
- Primary QIM CellNb (Raw264.7 cells [10]): 99.5
- Primary QIM CellNb (Raw264.7 cells [11]): 366.0

Compound: CCOC(=O)C1=C(C)NC2=C(C(=O)CC(c3ccccc3)C2)C1c1cccc(O)c1 (stereo not shown) [IPK 000 083 89]
- inhibition at 20 µM [9, 13]: 59.1%
- inhibition at 20 µM [9, 14]: 73.5%
- Primary QIM CellNb (Raw264.7 cells [10]): 19.5
- Primary QIM CellNb (Raw264.7 cells [11]): 38.8

Compound: Cc1cccc(NC(=O)c2c(NC(=O)c3ccccc3Cl)sc3c2CCC3)c1 [IPK 000 073 70]
- inhibition at 20 µM [9, 13]: 103%
- inhibition at 20 µM [9, 14]: 88.6%
- Primary QIM CellNb (Raw264.7 cells [10]): 56.7
- Primary QIM CellNb (Raw264.7 cells [11]): 234.0

Compound: COc1ccc(/C=N/NC(=O)c2ccncc2)cc1OC [IPK 000 042 95]
- inhibition at 20 µM [9, 13]: 98.8%
- inhibition at 20 µM [9, 14]: 64.7%
- Primary QIM CellNb (Raw264.7 cells [10]): 106.0
- Primary QIM CellNb (Raw264.7 cells [11]): 143.5
